Experiments:
Assay type in all cases: physicochemical
[1] = Dynamic Vapour Sorption (DVS) hygroscopicity test; conditions: for Weight Gain (80% RH): DVS
Protocol: The instruments used and their parameters are as follows: XPRD—X-ray powder diffraction, using Bruker D8 Advance Diffractometer to characterize solids. Copper target wavelength is 1.54 Å Kα radiation (40 kV, 40 mA), 0-20 goniometer, Mo monochromator, Lynxeye detector, detection angle is 3-40° 2θ/3-30° 20, step size It is 0.02° 20, the speed is 0.2 s/step, and the detection sample weight is >2 mg. TGA—Thermo gravimetric analysis, using TA Instruments Q500 TGA, the detection sample size is 1 mg-10 mg, the common detection method is Hi-Res sensitivity 3.0, Ramp 10.00° C./min, res 5.0 to 150.00° C., Ramp 10.00° C./min to 350° C. DSC—differential scanning calorimetry analysis, using TA Instruments Q200 DSC, the detection sample weight is 0.5 mg-5 mg, the gas flow rate is 40 mL/min, the common detection method is Equilibrate, 20° C., Ramp 10° C./min to 280° C.-300° C. DVS—Dynamic Vapour Sorption analysis, the detection sample weight is 1 mg-10 mg, the gas flow rate is 10 mL/min, the common detection method is equilibrium at 25° C., humidity 0%, isothermal for 90 minutes, if the weight percentage is less than 0.0100, the next isothermal test is aborted for 15.00 minutes, and the 10% step humidity is 80.00% every 90 minutes. If the weight percentage is less than 0.0100, the next isothermal test is aborted for 15.00 minutes, and the step humidity is 10% to 0.00% every 90 minutes. For the above identification and characterization results of XPRD, TGA, DSC, and DVS, please refer to FIG. 1-82, Table 1-15 and related description.
Take about 10 mg of crystalline form XI sample for Dynamic Vapour Sorption (DVS) test. The conclusions are described in Table 23 below.
About 10 mg of amorphous form XVI sample was taken for dynamic moisture adsorption (DVS) test. The conclusions are described in Table 25 below:
Dynamic water sorption (DVS) was performed on hydrobromide and maleate crystalline samples.

[2] = Stability test of crystalline form XI (different temperature and humidity)
Description: Place the sample of Form XI under high temperature, high humidity 75% RH conditions, and sample on Day 0, Day 5, Day 10 and Day 30 to investigate its content, related substances and crystal forms.

[3] = Stability testing of amorphous form XVI (60° C., 90% RH, light)
Protocol: The amorphous XVI sample was placed at 60° C., with high humidity 90% RH, under the light condition (light condition: 4500 Lux), and sampled on Day 0/5/10 to investigate its content, related substances and crystal form.

[4] = Competitive experiment of crystalline form X and crystalline form XI (suspension stirring, XRD); conditions: acetone/n-heptane, dichloromethane/n-heptane, acetone/water 1/3 v:v; room temperature 1-3 days
Description: Take an equal amount of crystalline form X and crystalline form XI samples, mix them uniformly, and sample for XRD detection.

[5] = Stability test for salt form screening (maleate crystalline form V; HPLC, XRD)
Protocol: Weigh 30 mg of compound (maleate crystalline form V) into a 8 mL glass bottle, then place it at high temperature (60° C., open), high humidity (room temperature/75% RH, open) and light (room temperature, white light: 6980 lux, ultraviolet 282 μW/cm2), take samples on Day 5/10/30 respectively for testing (HPLC, XRD).

[6] = Day 5—light condition (4500 Lux)
[7] = Day 10—light condition (4500 Lux)

CCN1C(C(=O)NC23CCC(C(=O)O)(CC2)CC3)C(c2cccc(Cl)c2F)C2(C(=O)Nc3cc(Cl)ccc32)C12CCCCC2.O (stereo not shown) [Form XI]
XRPD before and after DVS [1]: Unchanged | water absorption during storage (conclusion from DVS) [1]: not easy to absorb water | DVS weight change of 0% RH-80% RH [1]: 0.17±0.05% | Weight Gain (80% RH) [1]: 0.01% | content and purity (summary) ([2]; 5 days, 10 days and 30 days, high temperature and high humidity): almost unchanged | Total impurity content (%) ([2]; Day 0): 0.31% | XPRD ([2]; Day 0): Form XI | content (%) ([2]; Day 0): 99.5% | Total impurity content (%) ([2]; Day 5—40° C.): 0.21% | content (%) ([2]; Day 5—40° C.): 99.6% | Total impurity content (%) ([2]; Day 5—60° C.): 0.15% | content (%) ([2]; Day 5—60° C.): 99.1% | Total impurity content (%) ([2]; Day 5—75% RH): 0.16% | content (%) ([2]; Day 5—75% RH): 99.1% | Total impurity content (%) ([2]; Day 10—40° C.): 0.25% | XPRD ([2]; Day 10—40° C.): Form XI | content (%) ([2]; Day 10—40° C.): 99.1% | Total impurity content (%) ([2]; Day 10—60° C.): 0.25% | XPRD ([2]; Day 10—60° C.): Form XI | content (%) ([2]; Day 10—60° C.): 100.1% | Total impurity content (%) ([2]; Day 10—75% RH): 0.24% | XPRD ([2]; Day 10—75% RH): Form XI | content (%) ([2]; Day 10—75% RH): 99.3% | Total impurity content (%) ([2]; Day 30—40° C.): 0.33% | XPRD ([2]; Day 30—40° C.): Form XI | content (%) ([2]; Day 30—40° C.): 98.9% | Total impurity content (%) ([2]; Day 30—75% RH): 0.32% | XPRD ([2]; Day 30—75% RH): Form XI | content (%) ([2]; Day 30—75% RH): 100.5%

CCN1C(C(=O)NC23CCC(C(=O)O)(CC2)CC3)C(c2cccc(Cl)c2F)C2(C(=O)Nc3cc(Cl)ccc32)C12CCCCC2 (stereo not shown) [Form XVI]
XRPD before and after DVS [1]: Unchanged | water absorption during storage (conclusion from DVS) [1]: not easy to absorb water | DVS weight change of 0% RH-80% RH [1]: 2.5±0.5% | Weight Gain (80% RH) [1]: 2.32% | Total impurity content (%) ([3]; Day 0): 0.38% | XPRD ([3]; Day 0): Amorphous | content (%) ([3]; Day 0): 99.4% | Total impurity content (%) ([3]; Day 5—60° C.): 0.48% | content (%) ([3]; Day 5—60° C.): 101.7% | Total impurity content (%) ([3]; Day 5—90% RH): 0.40% | content (%) ([3]; Day 5—90% RH): 102.1% | Total impurity content (%) [3, 6]: 0.44% | content (%) [3, 6]: 102.4% | Total impurity content (%) ([3]; Day 10—60° C.): 0.54% | XPRD ([3]; Day 10—60° C.): Amorphous | content (%) ([3]; Day 10—60° C.): 99.0% | Total impurity content (%) ([3]; Day 10—90% RH): 0.40% | XPRD ([3]; Day 10—90% RH): Amorphous | content (%) ([3]; Day 10—90% RH): 101.1% | Total impurity content (%) [3, 7]: 0.57% | XPRD [3, 7]: Amorphous | content (%) [3, 7]: 100.4%

CCN1C(C(=O)NC23CCC(C(=O)O)(CC2)CC3)C(c2cccc(Cl)c2F)C2(C(=O)Nc3cc(Cl)ccc32)C12CCCCC2 (stereo not shown) [crystalline form X]
form after stirring mixed sample of form X and form XI (XRD) [4]: converted to crystalline form XI | DVS water absorption 0% RH-60% RH ([1]; 0% RH-60% RH): < 0.1% | DVS weight change 60% RH-80% RH ([1]; 60% RH-80% RH): 1.6±0.2%

Br.CCN1C(C(=O)NC23CCC(C(=O)O)(CC2)CC3)C(c2cccc(Cl)c2F)C2(C(=O)Nc3cc(Cl)ccc32)C12CCCCC2 (stereo not shown) [hydrobromide crystalline form VI]
Weight Gain (80% RH) [1]: 5.1% (hygroscopic)

CCN1C(C(=O)NC23CCC(C(=O)O)(CC2)CC3)C(c2cccc(Cl)c2F)C2(C(=O)Nc3cc(Cl)ccc32)C12CCCCC2.O=C(O)C=CC(=O)O (stereo not shown) [maleate crystalline form V]
Total impurity content (%) ([5]; Day 0): 1.20% | XPRD ([5]; Day 0): Form V | content and purity (summary) ([5]; Day 5/10/30, high temperature, high humidity and light): almost unchanged | Total impurity content (%) ([5]; Day 5—60° C.): 1.20% | XPRD ([5]; Day 5—60° C.): Form V | Total impurity content (%) ([5]; Day 5—75% RH): 1.10% | XPRD ([5]; Day 5—75% RH): Form V | Total impurity content (%) ([5]; Day 5—light): 1.10% | XPRD ([5]; Day 5—light): Form V | Total impurity content (%) ([5]; Day 10—60° C.): 1.20% | XPRD ([5]; Day 10—60° C.): Form V | Total impurity content (%) ([5]; Day 10—75% RH): 1.20% | XPRD ([5]; Day 10—75% RH): Form V | Total impurity content (%) ([5]; Day 10—light): 1.10% | XPRD ([5]; Day 10—light): Form V | Total impurity content (%) ([5]; Day 30—60° C.): 1.20% | XPRD ([5]; Day 30—60° C.): Form V | Total impurity content (%) ([5]; Day 30—75% RH): 1.10% | XPRD ([5]; Day 30—75% RH): Form V | XRPD before and after DVS [1]: Unchanged | Weight Gain (80% RH) [1]: 1.2% (slightly

Reference: patent US20230064976A1, “AMORPHOUS FORM OR CRYSTALLINE FORM OF 2-INDOLINOLINOLOLYLSPIRONONE COMPOUNDS OR THEIR SALTS, SOLVENT COMPLEXES” (ASCENTAGE PHARMA (SUZHOU) CO., LTD., priority 2020, published 2023)
